Data from ChEMBL document CHEMBL1148680 (Bioorg Med Chem Lett, 2006).

How the values were obtained:
hERG (KCNH2) [1] = molecular target: T1, hERG (KCNH2) (Homo sapiens, UniProt Q12809); experiment: Inhibition of [3H]dofetilide binding to HERG expressed in HEK293 cells at 100 nM; type: cell-based; details: HEK293 cells that express hERG, probe [3H]dofetilide
hERG (KCNH2) [2] = molecular target: T1, hERG (KCNH2); experiment: Inhibition of [3H]dofetilide binding to HERG expressed in HEK293 cells at 300 nM; type: cell-based; details: HEK293 cells that express hERG, probe [3H]dofetilide
[3] = tested on: Human immunodeficiency virus; experiment: Antiviral activity against HIV BaL in PM1 cell; type: functional; details: Human immunodeficiency virus 1, BaL
[4] = Distribution coefficient, log D of the compound; type: physicochemical; details: octanol/water
[5] = molecular target: C-C chemokine receptor type 5 (Homo sapiens, UniProt P51681); experiment: Inhibition of [125I]MIP-1beta binding to CCR5 expressed in HEK293 cells; type: cell-based
[6] = Dissociation constant, pKa of the compound; type: physicochemical
[7] = molecular target: Voltage-gated inwardly rectifying potassium channel KCNH2 (Homo sapiens, UniProt Q12809); experiment: Inhibition of [3H]dofetilide binding to HERG expressed in HEK293 cells; type: cell-based
Chain of Voltage-gated inwardly rectifying potassium channel KCNH2 (Q12809 whole entry): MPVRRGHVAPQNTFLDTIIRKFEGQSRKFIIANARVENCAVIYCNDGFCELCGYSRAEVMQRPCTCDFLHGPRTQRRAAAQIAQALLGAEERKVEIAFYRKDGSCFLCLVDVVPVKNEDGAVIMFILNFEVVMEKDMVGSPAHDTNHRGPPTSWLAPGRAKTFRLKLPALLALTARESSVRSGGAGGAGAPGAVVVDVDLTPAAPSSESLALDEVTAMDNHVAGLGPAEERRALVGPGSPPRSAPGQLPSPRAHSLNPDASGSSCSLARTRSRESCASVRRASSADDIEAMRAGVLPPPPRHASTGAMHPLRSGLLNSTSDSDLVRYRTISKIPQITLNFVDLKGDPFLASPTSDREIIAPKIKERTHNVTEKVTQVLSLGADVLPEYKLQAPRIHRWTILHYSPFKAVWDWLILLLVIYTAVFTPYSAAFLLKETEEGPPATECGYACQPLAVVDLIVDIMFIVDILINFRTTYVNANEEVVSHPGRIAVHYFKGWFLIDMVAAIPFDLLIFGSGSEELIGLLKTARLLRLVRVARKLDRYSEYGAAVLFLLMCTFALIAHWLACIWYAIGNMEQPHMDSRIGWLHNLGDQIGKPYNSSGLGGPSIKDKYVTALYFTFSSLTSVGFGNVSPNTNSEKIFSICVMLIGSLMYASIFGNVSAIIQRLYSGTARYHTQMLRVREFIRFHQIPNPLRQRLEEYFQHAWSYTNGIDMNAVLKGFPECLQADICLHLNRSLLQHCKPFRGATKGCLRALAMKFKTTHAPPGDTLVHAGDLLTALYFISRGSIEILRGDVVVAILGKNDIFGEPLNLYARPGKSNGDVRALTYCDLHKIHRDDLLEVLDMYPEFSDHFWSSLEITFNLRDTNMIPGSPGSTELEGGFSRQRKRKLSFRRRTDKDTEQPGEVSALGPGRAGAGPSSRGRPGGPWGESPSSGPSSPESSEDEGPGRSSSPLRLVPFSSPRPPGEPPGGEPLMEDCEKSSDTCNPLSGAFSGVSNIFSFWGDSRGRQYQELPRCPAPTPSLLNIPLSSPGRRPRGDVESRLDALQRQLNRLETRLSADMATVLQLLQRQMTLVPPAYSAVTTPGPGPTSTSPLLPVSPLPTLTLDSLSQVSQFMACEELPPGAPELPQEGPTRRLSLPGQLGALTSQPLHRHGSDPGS

Chain of C-C chemokine receptor type 5 (P51681 whole entry): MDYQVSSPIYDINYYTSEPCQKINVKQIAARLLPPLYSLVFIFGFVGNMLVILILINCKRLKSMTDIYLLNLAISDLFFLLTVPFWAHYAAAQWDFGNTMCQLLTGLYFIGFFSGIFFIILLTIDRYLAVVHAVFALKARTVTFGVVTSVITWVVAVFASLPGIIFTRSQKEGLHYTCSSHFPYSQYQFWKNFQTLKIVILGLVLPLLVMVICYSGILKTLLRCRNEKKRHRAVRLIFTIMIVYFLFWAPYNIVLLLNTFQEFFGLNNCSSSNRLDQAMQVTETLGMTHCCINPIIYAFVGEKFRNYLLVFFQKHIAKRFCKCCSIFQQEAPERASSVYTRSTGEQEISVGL
T1 sequence (Q12809 whole entry): as the sequence (Q12809 whole entry) above

| IC50 [5] | SMILES | inhibition at 0.3 µM (hERG (KCNH2) [2]) | IC90 [3] | also measured |
| --- | --- | --- | --- | --- |
|  | Cc1nnc(C(C)C)n1C1CC2CCC(C1)N2CC[C@H](NC(=O)C1CCC1)c1ccccc1 (stereo partly drawn) | 30% | 8 nM | inhibition at 0.1 µM (hERG (KCNH2) [1]): 14%; logD [4]: 1.6 |
| 250 nM | Cc1nnc(Cc2ccccc2)n1C1CCN(CC[C@H](NC(=O)C2CCC2)c2ccccc2)CC1 |  |  |  |
| 50 nM | Cc1nnc(C)n1C1CCN(CC[C@H](NC(=O)C2CCC2)c2ccccc2)CC1 |  |  | inhibition at 0.1 µM (hERG (KCNH2) [1]): 5% |
| 5 nM | O=C(N[C@@H](CCN1CCC(n2cnc(Cc3ccccc3)n2)CC1)c1ccccc1)C1CCC1 |  |  |  |
| 70 nM | Cc1nc(C2CCN(CC[C@H](NC(=O)C3CCC3)c3ccccc3)CC2)no1 |  |  |  |
| 20 nM | O=C(N[C@@H](CCN1CCC(c2noc(Cc3ccccc3)n2)CC1)c1ccccc1)C1CCC1 |  |  | inhibition at 0.1 µM (hERG (KCNH2) [1]): 50% |
|  | Cc1nnc(C)n1C1CC2CCC(C1)N2CC[C@H](NC(=O)C1CCC1)c1ccccc1 (stereo partly drawn) |  | 13 nM | inhibition at 0.1 µM (hERG (KCNH2) [1]): 10% |
|  | Cc1nc2ccccc2n1C1CC2CCC(C1)N2CC[C@H](NC(=O)C1CCC1)c1ccccc1 (stereo partly drawn) | 80% |  | pKa [6]: 7.8 |
|  | Cc1nnc(C(C)C)n1C1CC2CCC(C1)N2CC[C@H](NC(=O)C1CCCC1)c1ccccc1 (stereo partly drawn) | 18% | 2 nM | logD [4]: 2.1 |
| 0.7 nM | O=C(Cc1ccc(F)cc1)NC1CCN(CC[C@H](NC(=O)C2CCC2)c2ccccc2)CC1 |  |  |  |
|  | Cc1nnc(C(C)C)n1C1CC2CCC(C1)N2CC[C@H](NC(=O)CCC(F)(F)F)c1ccccc1 (stereo partly drawn) | 14% | 14 nM | logD [4]: 1.8 |
|  | CC(=O)N(CCOc1ccc(NS(C)(=O)=O)cc1)CCc1ccc(NS(C)(=O)=O)cc1 |  |  | Activity [7]: 0.021 µM |
|  | Cc1nnc(C(C)C)n1[C@@H]1C[C@H]2CC[C@@H](C1)N2CC[C@H](NC(=O)C1CCC(F)(F)CC1)c1ccccc1 [MARAVIROC] |  |  | logD [4]: 2.1 |
|  | Cc1nnc(C(C)C)n1[C@H]1C[C@H]2CC[C@@H](C1)N2CC[C@H](NC(=O)C1CCC(F)(F)CC1)c1ccccc1 [MARAVIROC] |  | 2 nM |  |

| SMILES | IC50 [5] | inhibition at 0.3 µM (hERG (KCNH2) [2]) | IC90 [3] | also measured |
| --- | --- | --- | --- | --- |
| Cc1nc2ccccc2n1C1CC2COCC(C1)N2CC[C@H](NC(=O)C1CCC1)c1ccccc1 (stereo partly drawn) [OXOGRANATANE] | 39 nM | 70% |  | pKa [6]: 6 |
